Each structure is given as a SMILES string.

One test deals with HIV-1IIIB. The test can be described thus: Inhibition of HIV-1 IIIB replication in MT-2 cells, p24 production by ELISA. Type of test: cell-based. Conditions: for fold more potent than 12 and 13: replication of HIV-1 IIIB and 94UG103, relative to 12 and 13. Background: In an ELISA, binding on a coated surface is turned into a signal by an enzyme label.
The next test concerns HIV-1. Particulars: previously identified; cited from earlier work.

As to `O=C(O)c1cccc(-c2ccc(/C=C3\SC(=S)N(CCc4ccccc4)C3=O)o2)c1` [11a, 3-{5-[4-Oxo-3-phenethyl-2-thioxothiazolidin-5-ylidenemethyl]furan-2-yl}-benzoic acid], the “fold more potent than 12 and 13” value with HIV-1IIIB was “more than 20 fold”.
Same read-out and setting: next, `Cc1ccc(-c2ccc(/C=C3\SC(=S)N(CCc4ccccc4)C3=O)o2)cc1C(=O)O` [11b, 2-Methyl-5-{5-[4-oxo-3-phenethyl-2-thioxothiazolidin-5-ylidenemethyl]furan-2-yl}-benzoic acid]: “more than 20 fold”.
On to `O=C(O)c1cc(-c2ccc(/C=C3\SC(=S)N(CCc4ccccc4)C3=O)o2)ccc1Cl` [11d, 2-Chloro-5-{5-[4-oxo-3-phenethyl-2-thioxothiazolidin-5-ylidenemethyl]furan-2-yl}-benzoic acid], for which the “fold greater potency than 13” value in the test on HIV-1IIIB (relative to 13) is ~ 25 fold. Moreover, the “fold more potent than 12 and 13” value in the test on HIV-1IIIB is given as “more than 20 fold”.
`O=C(O)c1cc(-c2ccc(/C=C3\SC(=S)N(CCc4ccccc4)C3=O)o2)ccc1Br` [11i, 2-Bromo-5-{5-[4-oxo-3-phenethyl-2-thioxothiazolidin-5-ylidenemethyl]furan-2-yl}-benzoic acid]: the “fold reduction of anti-HIV-1 activity” value with HIV-1IIIB (relative to unsubstituted 11a) is given as ~ 7 fold.
Turning to `Cc1ccc(C)n1-c1ccc(C(=O)O)c(O)c1` [compound 12, N-(4-carboxy-3-hydroxy)phenyl-2,5-dimethylpyrrole], in the test with HIV-1, the “inhibit HIV-1 infection” value is on record as “low μM level”.
With `O=C(O)c1cc(-n2cccc2)ccc1Cl` [compound 13, N-(3-carboxy-4-chloro) phenylpyrrole], the “inhibit HIV-1 infection” value in the test with HIV-1 was “low μM level”.

These data come from PMC2802534 (Journal of medicinal chemistry, 2009).
